Assay results as given in patent US20060069132A1, “Azolecarboxamide herbicides” (priority 2004, published 2006).

Experiments:
goosegrass = experiment: Test C pre-/postemergence herbicide test; format: in vivo, Eleusine indica
How it was run: (§1)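 Pre/post spray; non-phytotoxic solvent + surfactant. Post-timing 1–4 leaves, 2–18 cm. Read-out: visual % control vs untreated, day 12–14, greenhouse.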

common ragweed = experiment: Test C pre-/postemergence herbicide test; format: in vivo, Ambrosia elatior; set-up: key to Plant response rating, Ragweed: 0 = no effect, 100 = complete control
How it was run: as §1

morningglory = experiment: Test A pre-/postemergence herbicide test; format: in vivo, Ipomoea spp.
How it was run: (§2)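 Greenhouse injury scoring (0–100, complete control = 100) at approximately ten days follows simultaneous pre- and postemergence application. Soil received a directed spray after seeding; seedlings of 2–10 cm at the one- to two-leaf stage were sprayed to runoff.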

eastern black nightshade = experiment: Test C pre-/postemergence herbicide test; format: in vivo, Solanum ptycanthum; details: for Plant response rating (0 = no effect, 100 = complete control), Nightshade / Plant response rating, Nightshade: preemergence; for Nightshade plant response rating: Preemergence, scale 0 to 100, 0 no effect, 100 complete control
How it was run: as §1

Surinam grass [1] = experiment: Test C pre-/postemergence herbicide test; format: in vivo, Urochloa decumbens
How it was run: as §1

redroot pigweed = experiment: Test A pre-/postemergence herbicide test; format: in vivo, Amaranthus retroflexus
How it was run: as §2

Surinam grass [2] = experiment: Test B pre-/postemergence herbicide test; format: in vivo, Urochloa decumbens
How it was run: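 Formulation: non-phytotoxic solvent mix with surfactant. Timing: preemergence on seed and postemergence on 2–18 cm plants, applied concurrently. Readout after 13–15 d greenhouse: visual 0–100 control rating against controls.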

wheat = experiment: Test B postemergence herbicide test; format: in vivo, Triticum aestivum; set-up: key to Wheat plant response rating: 0 = no effect, 100 = complete control
How it was run: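 Scale 0–100: zero equals no visible effect, 100 complete control, judged by eye relative to controls. Timing: 13 to 15 days in greenhouse post-treatment. Growth stage at spraying: two leaves (paddy) or one to four leaves, 2–18 cm (postemergence).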

[3] = 125 g ai/ha, scale 0 (no effect) to 100 (complete control), visual, 12 to 14 days, preemergence
[4] = Preemergence, 500 g ai/ha, scale 0 to 100, 0 no effect, 100 complete control
[5] = Postemergence, 500 g ai/ha, 0 to 100 scale, 0 no effect, 100 complete control
[6] = Postemergence, 2000 g ai/ha, 0 to 100 scale, 0 no effect, 100 complete control
[7] = Preemergence, 500 g ai/ha, visual rating, 0 to 100 scale (0 no effect, 100 complete control)
[8] = Preemergence, 2000 g ai/ha, visual rating, 0 to 100 scale (0 no effect, 100 complete control)
[9] = 125 g ai/ha, scale 0 (no effect) to 100 (complete control), visual, 12 to 14 days
[10] = preemergence, 500 g ai/ha, visual injury, 0 to 100 scale (0 no effect, 100 complete control)
[11] = 500 g ai/ha; visual rating 0-100, 0 no effect, 100 complete control; preemergence
[12] = postemergence, 125 g ai/ha; visual rating, scale 0 (no effect) to 100 (complete control)
[13] = postemergence, 500 g ai/ha; visual rating, scale 0 (no effect) to 100 (complete control)
[14] = preemergence, 125 g ai/ha; 0 to 100 scale, 0 is no effect, 100 is complete control
[15] = Postemergence, 500 g ai/ha, scale 0 to 100
[16] = Postemergence, 250 g ai/ha, scale 0 to 100, 0 no effect, 100 complete control
[17] = postemergence, 125 g ai/ha, scale 0 to 100
[18] = postemergence, 62 g ai/ha, scale 0 to 100
[19] = 62 g ai/ha, preemergence, scale 0 to 100
[20] = 250 g ai/ha, scale 0-100, preemergence
[21] = 125 g ai/ha; 0 = no effect, 100 = complete control; preemergence
[22] = 500 g ai/ha, scale 0 to 100 (0 no effect, 100 complete control), visual, 12 to 14 days, preemergence
[23] = 500 g ai/ha, scale 0 to 100 (0 no effect, 100 complete control), visual, 12 to 14 days
[24] = 500 g ai/ha; visual rating, 0 = no effect, 100 = complete control; preemergence
[25] = 125 g ai/ha; visual rating, scale 0 (no effect) to 100 (complete control); postemergence
[26] = postemergence, 500 g ai/ha; scale 0 to 100, 0 is no effect, 100 is complete control

| Compound | Plant response rating, Goosegrass (goosegrass; [3]) | Goosegrass plant response rating (goosegrass; [4]) | Plant response rating, Ragweed (common ragweed; [3]) | Ragweed plant response rating (common ragweed; [4]) | Morningglory plant response rating (morningglory; [5]) | Plant response rating, Morningglory (morningglory; [6]) | Morningglory plant response rating (morningglory; [8]) | Plant response rating, Nightshade (eastern black nightshade; [9]) | Nightshade plant response rating (eastern black nightshade; 500 g ai/ha) | Plant response rating, Surinam Grass (Surinam grass [1]; [3]) | Surinam Grass plant response rating (Surinam grass [1]; [4]) | Pigweed plant response rating (redroot pigweed; [5]) | Plant response rating, Pigweed (redroot pigweed; [6]) | Pigweed plant response rating (redroot pigweed; [8]) | Pigweed plant response rating (redroot pigweed; [10]) | Plant response rating, Surinam Grass (Surinam grass [2]; [11]) | Surinam Grass plant response rating (Surinam grass [2]; [12]) | Surinam Grass plant response rating (Surinam grass [2]; [13]) | Wheat plant response rating (wheat; [13]) | Plant response rating, Goosegrass (goosegrass; [19]) | further results |
| --- | --- | --- | --- | --- | --- | --- | --- | --- | --- | --- | --- | --- | --- | --- | --- | --- | --- | --- | --- | --- | --- |
| CCN(CC)C(=O)c1cccc(NC(=O)c2cc(C(C)(C)C)nn2CC)n1 [Compound 145] | 70 | 80 | 0 | 20 | 15 | 30 | 25 | 70 | 90 | 50 | 70 | 90 | 100 | 100 | 95 | 80 | 20 | 20 | 20 | – | Plant response rating (0 = no effect, 100 = complete control), Goosegrass (goosegrass; 62 g ai/ha, preemergence): 50; Plant response rating (0 = no effect, 100 = complete control), Ragweed (common ragweed; 62 g ai/ha, preemergence): 0; Morningglory plant response rating (morningglory; [7]): 20; Plant response rating (0 = no effect, 100 = complete control), Nightshade (eastern black nightshade; 62 g ai/ha): 60; Plant response rating (0 = no effect, 100 = complete control), Surinam Grass (Surinam grass [1]; 62 g ai/ha, preemergence): 0; Plant response rating, Surinam Grass (Surinam grass [2]; [14]): 30 |
| CCn1nc(C(C)(C)C)cc1C(=O)Nc1cccc(C(=O)NC2CC2)n1 [Compound 146] | 0 | 60 | 0 | 70 | 5 | 0 | 50 | 60 | 100 | 0 | 50 | 85 | 100 | 95 | 85 | 30 | 10 | 30 | 10 | – | Plant response rating (0 = no effect, 100 = complete control), Goosegrass (goosegrass; 62 g ai/ha, preemergence): 0; Goosegrass plant response rating (goosegrass; [15]): 0; Plant response rating, Goosegrass (goosegrass; [16]): 0; Plant response rating, Goosegrass (goosegrass; [17]): 0; Plant response rating, Goosegrass (goosegrass; [18]): 0; Plant response rating (0 = no effect, 100 = complete control), Ragweed (common ragweed; 62 g ai/ha, preemergence): 0; Ragweed plant response rating (common ragweed; [15]): 0; Plant response rating, Ragweed (common ragweed; [16]): 0; Plant response rating, Ragweed (common ragweed; [17]): 0; Plant response rating, Ragweed (common ragweed; [18]): 0; Morningglory plant response rating (morningglory; [7]): 5; Plant response rating (0 = no effect, 100 = complete control), Nightshade (eastern black nightshade; 62 g ai/ha): 50; Plant response rating (0 = no effect, 100 = complete control), Surinam Grass (Surinam grass [1]; 62 g ai/ha, preemergence): 0; Surinam Grass plant response rating (Surinam grass [1]; [15]): 20; Plant response rating, Surinam Grass (Surinam grass [1]; [16]): 0; Plant response rating, Surinam Grass (Surinam grass [1]; [17]): 0; Plant response rating, Surinam Grass (Surinam grass [1]; [18]): 0; Plant response rating, Surinam Grass (Surinam grass [2]; [14]): 10 |
| CCNC(=O)c1cc(C)nc(NC(=O)c2cc(C(C)(C)C)nn2CC)c1 [Compound 149] | 70 | 90 | 0 | 5 | 30 | 60 | 65 | 80 | 95 | 5 | 85 | 65 | 90 | 95 | 90 | 80 | 10 | 20 | 10 | 10 | Plant response rating, Ragweed (common ragweed; [19]): 0; Morningglory plant response rating (morningglory; [7]): 30; Plant response rating, Nightshade (eastern black nightshade; 62 g ai/ha, scale 0 to 100): 80; Plant response rating, Surinam Grass (Surinam grass [1]; [19]): 0; Plant response rating, Surinam Grass (Surinam grass [2]; [14]): 40 |
| C=CCNC(=O)c1cccc(NC(=O)c2sc(C(C)(C)C)nc2C)c1 [Compound 202] | 85 | 95 | 80 | 95 | 75 | 75 | 70 | 95 | 100 | 20 | 60 | 50 | 90 | 100 | 100 | 60 | 10 | 10 | 0 | 20 | Plant response rating, Goosegrass (goosegrass; [20]): 90; Plant response rating, Ragweed (common ragweed; [19]): 0; Plant response rating, Ragweed (common ragweed; [20]): 95; Morningglory plant response rating (morningglory; [10]): 15; Plant response rating, Nightshade (eastern black nightshade; 62 g ai/ha, scale 0 to 100): 20; Plant response rating, Nightshade (eastern black nightshade; 250 g ai/ha, scale 0-100): 100; Plant response rating, Surinam Grass (Surinam grass [1]; [19]): 10; Plant response rating, Surinam Grass (Surinam grass [1]; [20]): 40; Surinam Grass plant response rating (0 to 100 scale) (Surinam grass [2]; [21]): 0; Wheat plant response rating (wheat; [12]): 0 |
| CCc1nc(C(C)(C)C)sc1C(=O)Nc1cccc(C(=O)NCC2CC2)n1 [Compound 215] | 40 | – | – | – | 25 | 35 | 55 | 100 | – | – | – | 70 | 80 | 85 | 30 | – | 0 | 10 | 20 | 0 | Plant response rating, Goosegrass (goosegrass; [20]): 80; Plant response rating, Goosegrass (goosegrass; [22]): 100; Plant response rating, Ragweed (common ragweed; [19]): 0; Plant response rating, Ragweed (common ragweed; [20]): 100; Plant response rating, Ragweed (common ragweed; [22]): 100; Morningglory plant response rating (morningglory; [10]): 20; Plant response rating, Nightshade (eastern black nightshade; 62 g ai/ha, scale 0 to 100): 100; Plant response rating, Nightshade (eastern black nightshade; 250 g ai/ha, scale 0-100): 100; Plant response rating, Nightshade (eastern black nightshade; [23]): 100; Plant response rating, Surinam Grass (Surinam grass [1]; [19]): 0; Plant response rating, Surinam Grass (Surinam grass [1]; [20]): 30; Plant response rating, Surinam Grass (Surinam grass [1]; [22]): 50; Surinam Grass plant response rating (0 to 100 scale) (Surinam grass [2]; [21]): 0; Plant response rating, Surinam Grass (Surinam grass [2]; [24]): 70; Wheat plant response rating (wheat; [12]): 0 |
| CCn1nc(C(C)(C)C)cc1C(=O)Nc1cncc(C(=O)N(C)C)n1 [Compound 287] | 100 | – | – | – | 20 | 15 | 50 | 100 | – | – | – | 50 | 80 | 100 | 100 | – | – | – | – | 70 | Plant response rating, Goosegrass (goosegrass; [20]): 100; Plant response rating, Goosegrass (goosegrass; [22]): 100; Plant response rating, Ragweed (common ragweed; [19]): 100; Plant response rating, Ragweed (common ragweed; [20]): 100; Plant response rating, Ragweed (common ragweed; [22]): 100; Morningglory plant response rating (morningglory; [10]): 10; Plant response rating, Nightshade (eastern black nightshade; 62 g ai/ha, scale 0 to 100): 95; Plant response rating, Nightshade (eastern black nightshade; 250 g ai/ha, scale 0-100): 100; Plant response rating, Nightshade (eastern black nightshade; [23]): 100; Plant response rating, Surinam Grass (Surinam grass [1]; [20]): 65; Plant response rating, Surinam Grass (Surinam grass [1]; [22]): 95; Surinam Grass plant response rating (0 to 100 scale) (Surinam grass [2]; [21]): 50; Surinam Grass plant response rating (Surinam grass [2]; [25]): 0; Plant response rating, Surinam Grass (Surinam grass [2]; [24]): 80; Surinam Grass plant response rating (Surinam grass [2]; [26]): 10; Wheat plant response rating (wheat; [25]): 10; Wheat plant response rating (wheat; [26]): 30 |
